Assay [1] has as its system West Nile virus. As to the kind of experiment: Activity at West Nile Virus NS2B-NS3 protease expressed in Escherichia coli BL21 (DE3) after 1 hr by FRET assay.
In assay [2] the test system is West Nile virus. As to the kind of experiment: Activity at West Nile Virus NS2B-NS3 protease expressed in Escherichia coli BL21 (DE3) after 1 hr by colorimetric assay.
Assay [3] relates to West Nile virus. Kind of assay: Ratio of kcat to Km for West Nile Virus NS2B-NS3 protease expressed in Escherichia coli BL21 (DE3) after 1 hr by colorimetric assay.
Assay [4] has as its system West Nile virus. As to the kind of experiment: Ratio of kcat to Km for West Nile Virus NS2B-NS3 protease expressed in Escherichia coli BL21 (DE3) after 1 hr by FRET assay.

Peptide text beside a SMILES is read from it.

For `COc1ccc2c(CC(=O)N[C@@H](CCCCN)C(=O)N[C@@H](CCCCN)C(=O)N[C@@H](CCCNC(=N)N)C(=O)NCC(=O)NCC(Nc3ccc([N+](=O)[O-])cc3[N+](=O)[O-])C(=O)N[C@@H](C)C(=O)N[C@@H](CCCCN)C(N)=O)cc(=O)oc2c1` (stereo partly specified) (HELM PEPTIDE1{[COc1ccc2c(CC(=O)[*:2])cc(=O)oc2c1].K.K.R.G.[C[C@H](NC(=O)C(CN[*:1])Nc1ccc([N+](=O)[O-])cc1[N+](=O)[O-])C(=O)N[C@@H](CCCCN)C(N)=O]}$$$$V2.0), the Km (usually the substrate concentration at which the rate is half of its maximum) in assay [1] is 3.35 µM; in assay [2] it was 69.9 µM. Further, the turnover number (kcat) (usually the maximal rate divided by the concentration of active sites) in assay [1] stood at 0.0717 s⁻¹; in assay [2] it was 0.263 s⁻¹. The kcat/Km – broadly, the turnover number divided by the Michaelis constant – in assay [3] came out at 3760 M⁻¹ s⁻¹; in assay [4] it was 21400 M⁻¹ s⁻¹.
